Measured values as given in patent US4404209A, “Analgesic mixture of nalbuphine and sulindac” (E. I. Du Pont de Nemours and Company, priority 1982, dated 1983).
Where two headings read alike, the source gives them in different places.

Test system: phenyl-p-benzoquinone induced writhing in mice
Conditions: oral; for % mice blocked: 40 min
Protocol: The phenyl-p-benzoquinone induced writhing test in mice [H. Blumberg et al., Proc. Soc. […] The method simply consists of reading the % ED50 DOSE for each dose ratio on the best fit regression analysis curve from the mouse isobologram, multiplying each component by its effective species dose, and then forming the ratio of the amount of nalbuphine to sulindac. […] [E. W. Pelikan, The Pharmacologist, 1, 73 (1959).]
The mixture is sonicated at 150 watts for 1-2 minutes with an ultrasound system, then shaken for two hours at 280 oscillations/minute with 15-20 gm of glass beads. The resultant suspension contains 16 mg/ml of sulindac; all dosing suspensions are prepared by dilution of the stock suspension with the Methocel®/Tween 80® vehicle; the vehicle control is Methocel®/Tween 80®. All suspensions are prepared fresh daily.
Each mouse is used only once, then discarded.
In order to study the interaction between nalbuphine and sulindac, 5 precise dosage ratios of nalbuphine hydrochloride and sulindac are selected.

| Structure (SMILES) | % mice blocked (nalbuphine HCl 5.45 mg/kg, sulindac 0) [%] | % mice blocked (nalbuphine HCl 10.9 mg/kg, sulindac 0) [%] | % mice blocked (nalbuphine HCl 21.8 mg/kg, sulindac 0) [%] | % mice blocked (nalbuphine HCl 43.6 mg/kg, sulindac 0) [%] | % mice blocked (nalbuphine HCl 87.2 mg/kg, sulindac 0) [%] | ED50 at 40 min, nalbuphine HCl (95% confidence limits) (mouse, nalbuphine HCl dose, alone or as component of the fixed-ratio combination) [mg/kg] | % mice blocked (nalbuphine HCl 0, sulindac 4.75 mg/kg) [%] | % mice blocked (nalbuphine HCl 0, sulindac 9.5 mg/kg) [%] | % mice blocked (nalbuphine HCl 0, sulindac 19.0 mg/kg) [%] | % mice blocked (nalbuphine HCl 0, sulindac 38.0 mg/kg) [%] | ED50 at 40 min, sulindac (95% confidence limits) (mouse, sulindac dose, alone or as component of the fixed-ratio combination) [mg/kg] |
| --- | --- | --- | --- | --- | --- | --- | --- | --- | --- | --- | --- |
| Oc1ccc2c3c1O[C@H]1[C@@H](O)CC[C@@]4(O)[C@@H](C2)N(CC2CCC2)CC[C@]314 [Nalbuphine, (-)-17-(cyclobutylmethyl)-4,5α-epoxymorphinan-3,6α,14-triol] | 16.7 | 40.0 | 36.7 | 63.3 | 90.0 | 30.8 | – | – | – | – | – |
| CC1=C(CC(=O)O)c2cc(F)ccc2/C1=C\c1ccc([S+](C)[O-])cc1 (centres unmarked) [Sulindac, (Z)-5-fluoro-2-methyl-1-{[4-(methylsulfinyl)phenyl]methylene}-1H-indene-3-acetic acid] | – | – | – | – | – | – | 20.0 | 20.0 | 46.7 | 96.7 | 21.2 |
